Test results published in US8912136B2, “Methods and compositions related to clot-binding compounds” (Sanford-Burnham Medical Research Institute, priority 2009, dated 2014).
Where no end group is shown, it is not given here. [ ]: non-standard residue; d: D form. NMeR = CN[C@@H](CCCNC(=N)N)C(=O)O; αMeR = C[C@](N)(CCCNC(=N)N)C(=O)O; NMeE = CN[C@@H](CCC(=O)O)C(=O)O; αMeE = C[C@](N)(CCC(=O)O)C(=O)O

Assays:
[1] = system: orthotopic 22Rv1 xenograft tumors; test: In vivo homing of FAM-labeled CREKA and methylated CREKA peptides; parameters: species or system mouse; conditions: for tumor fluorescence compared to unmodified CREKA: 200 μg FAM-conjugated peptide, 3 hrs, Image J
Description: Tumor accumulation of CREKA peptide and its N-methylated and C-methylated variants. The accumulation of N-methylated and C-methylated derivatives of CREKA was measured in mice bearing orthotropic 22Rv-1 xenograft tumors. The mice were intravenously injected with 200 μg of FAM-conjugated CREKA or methylated CREKA peptides derivatives. The peptides were allowed to circulate for 3 hrs. The mice were then perfused through the heart with PBS, and organs were collected and the fluorescence was measured under UV light. The fluorescence was analyzed with Image J software. Most N/C-methylated CREKA analogs produced stronger fluorescence compared to the unmodified CREKA. […] In FIG. 10B the enhanced fluorescence of CR(NMe)EKA is shown in the tumor compared to both CREKA and C(NMe)REKA peptide. It is shown that FAM-labeled CREKA peptide in which the glutamic acid is N-methylated accumulates in tumor tissue more strongly than unmodified CREKA.
Orthotopic prostate cancers were used when they reached 0.5-1 cm in size. Synthetic peptides labeled with fluorescein (approximately 200 μg) were intravenously injected into tumor-bearing mice and allowed to circulate for 15 minutes to 3 hours. The mice were perfused with PBS through the heart under anesthesia, and tissues were collected and observed under UV light (Illumatool Bright Light System LT-9900, Lightools Research, Encinitas, Calif.), and then processed for immunofluorescence or immunohistochemistry.

[2] = system: 22Rv1 orthotopic human prostate cancer tumors; test: Homing and clotting of peptide-coated iron oxide nanoworms/SPIO; type: in vivo, mouse; conditions: intravenous, Example 2
Description: To analyze NW biodistribution, mice bearing orthotopic 22Rv1 tumors were injected into the tail vein (5 mg of iron per kg body weight). In homing experiments, the mice were euthanized 5-6 hours after the injection by cardiac perfusion with PBS under anesthesia, and organs were dissected and analyzed for particle homing. In tumor treatment experiments, nude mice bearing 2 week-old 22Rv-1 or LAPC9 orthotopic xenografts (typically about 200-250 mm^3 in tumor volume) were intravenously injected with NW in 150 μl PBS or PBS as a control. The NW were injected every other day for 14 days. The total cumulative dose was 35 mg iron/kg. At the end of the treatment, the mice were perfused with PBS under anesthesia, and the tumors were harvested. Tumor volume was calculated using the following formula: volume (mm3)=(d2×D)/2, where d and D are the smallest and largest tumor diameters, respectively. […] The primary antibodies were detected with Alexa 647 goat anti-rat, and 647 donkey anti-goat secondary antibodies (1:1000; Molecular Probes, Eugene, Oreg.). […] The primary antibody was detected with biotinylated anti-mouse IgG and Vectastain ABC kit (Vector Laboratories, Burlingame, Calif.). […] To quantify the homing area of fibrin(ogen) within tumors the stained section were scanned with the Scanscope CM-1 scanner and analyzed with the ImageScope software41 (Aperio Technologies, Vista, Calif.).

[3] = system: human plasma clots; test: Nanoparticle binding to plasma clots in vitro
Description: (§1) Phage and nanoparticle binding to clots. Phage binding to clotted plasma proteins was determined as described (Pilch 2006). CREKA-SPIO and control SPIO were added to freshly formed plasma clots in the presence or absence of free CREKA peptide. After 10 min incubation, the clots were washed 4 times in PBS, transferred to a new tube and digested in 100 μl concentrated nitric acid. The digested material was diluted in 2 ml distilled water and the iron concentration was determined using inductively coupled plasma-optical emission spectroscopy (ICP-OES, PerkinElmer, Norwalk, Conn.).

[4] = system: mouse plasma clots; test: Nanoparticle binding to plasma clots in vitro
Description: as §1

[5] = Nanoparticle clearance (blood half-life); type: in vivo, mouse
Description: Nanoparticle injections. For intravenous injections, the animals were anesthetized with intraperitoneal Avertin, and liposomes (2 μmol DSPC) and/or nanoparticles (1-4 mg Fe/kg body weight) were injected into the tail vein. The animals were sacrificed 5-24 h post-injection by cardiac perfusion with PBS under anesthesia, and organs were dissected and analyzed for particle homing. To suppress liver macrophages, mice were intravenously injected with liposomal clodronate suspension (100 μl per mouse), and the mice were used for experiments 24 hours later. Nanoparticle clearance. Heparinized capillaries were used to draw 50 μA of blood from the periorbital plexus at different times after nanoparticle injection, the blood was centrifuged at 300 g for 2 min, and a 10 μA aliquot of platelet-rich plasma was diluted into 600 μl 1M Tris solution, pH 8.4. Fluorescence was determined on a PerkinElmer (Norwalk, Conn.) LS50B spectrofluorometer, and plotted as a function of the time the particles had circulated.

[6] = system: MDA-MB-435 human breast cancer xenograft tumors; test: Nanoparticle/liposome tumor homing and clotting in tumor vessels; type: in vivo, mouse
Description: Nanoparticle injections. For intravenous injections, the animals were anesthetized with intraperitoneal Avertin, and liposomes (2 μmol DSPC) and/or nanoparticles (1-4 mg Fe/kg body weight) were injected into the tail vein. The animals were sacrificed 5-24 h post-injection by cardiac perfusion with PBS under anesthesia, and organs were dissected and analyzed for particle homing. To suppress liver macrophages, mice were intravenously injected with liposomal clodronate suspension (100 μl per mouse), and the mice were used for experiments 24 hours later.
Intravital microscopy. Tumor blood flow in MDA-MB 435 xenograft-bearing mice was observed by intravital microscopy. Mice were pre-injected with Ni-liposomes and 5×10^8 of DiI-labeled erythrocytes. A skin flap was moved aside to expose the tumors, and the mice were intravenously injected with 4 mg/kg of fluorescein-CREKA-SPIO (time “0”). The tumors were scanned with IV-100 intravital laser scanning microscope (Olympus Corp., Tokyo, Japan) using an IV-OB35F22W29 MicroProbe objective (Olympus Corp., Tokyo, Japan). Movies were recorded at 10 min intervals up to 120 min post-injection.
Magnetic measurements of the tissue samples using Superconducting Quantum Interference Device (SQUID) magnetometer. Tissue samples were frozen immediately upon collection, lyophilized, weighed, and placed in gelatin capsules. The capsules were inserted into the middle of transparent plastic straws for magnetic measurements made using a Quantum Design MPMS2 SQUID magnetometer (San Diego, Calif.) operated at 150 K. The samples were exposed to direct current magnetic fields in stepwise increments up to one Tesla. Corrections were made for the diamagnetic contribution of tissue, capsule and straw.

[7] = intravenous, no decoy pretreatment

For “CR(NMe)E(NMe)KA: doubly N-methylated CREKA analog (C[NMeR][NMeE]KA)”, the “tumor fluorescence compared to unmodified CREKA” value [1] was “significantly more fluorescence”.
In the case of “CRE(NMe)KA: N-methylated CREKA analog (CR[NMeE]KA)”, the “tumor fluorescence compared to unmodified CREKA” value [1] is reported as “significantly more fluorescence”.
In the case of “C(NMe)REKA: CREKA analog in which the arginine residue is N-methylated (C[NMeR]EKA)”, the “tumor fluorescence compared to unmodified CREKA” value [1] is reported as “did not show an enhanced fluorescence” and the “tumor accumulation / fluorescence of CREKA analogs” value ([1]; FAM-labeled peptides, Example 3) is reported as “only weak tumor fluorescence”.
In the case of “CREKA-SPIO: fluorescein-labeled CREKA coupled onto 50 nm superparamagnetic amino dextran-coated iron oxide nanoparticles (not fully specified (N-terminus); also: conjugated to dextran-coated superparamagnetic iron oxide nanoparticles (SPIO))”, the tumor homing [2] is reported as “effectively home to 22Rv-1 tumors”, the “binding to plasma clots” value [3] is reported as “bound to mouse and human plasma clots” and the “binding to plasma clots” value [4] is reported as “bound to mouse and human plasma clots”. The “prolongation in particle half-life” value ([5]; after depleting RES macrophages with liposomal clodronate) was ~5 fold, the “blood half-life and tumor homing after decoy particles” value ([5]; plain liposomes as decoy particles) was “prolonged the blood half-life” and the “whole-body scan tumor signal” value ([6]; Cy7-labeled, near infrared) was “effectively accumulated in tumors”. The “intravital confocal microscopy of tumor blood vessels” value ([6]; DiI-labeled erythrocytes as flow marker, 4 mg/kg) was “time-dependent clot formation and obstruction of blood flow”, the “accumulation in Ni-liposome-pretreated compared to PBS-pretreated mice” value ([6]; SQUID tumor magnetization and fluorescence signal) was “about 6 fold” and the “reduction of tumor accumulation by heparin” value ([6]; SQUID, heparin prior to injection) was “more than 50%”. For the same substance, the “tumor vessel lumens filled with fluorescent masses (occlusion)” value ([6]; after liposome pretreatment) was “up to 20%”, the “effect of thrombocytopenia on homing” value ([6]; anti-CD41 monoclonal antibody) was “no noticeable effect” and the “heparin effect on intravascular clotting” value ([6]; heparin pretreatment) was “essentially eliminated”. The “heparin effect on number of vessels with nanoparticles bound to the vessel walls” value ([6]; heparin pretreatment) was “did not significantly reduce”, the accumulation in tumor [6, 7] was “did not accumulate effectively” and the “particles in reticuloendothelial system (RES) tissues” value [6, 7] was “high concentration of particles”. The “tumor homing after Ni-liposome pretreatment” value ([6]; pretreatment 5 min or 48 h prior) was “greatly increased the tumor homing” and the “localization of nanoparticle-induced clotting” value ([6]; tumor versus kidneys, lungs, liver) was “essentially confined to tumor vessels”.
In the case of “CRE(CMe)KA: Cα-methylated CREKA analog (CR[αMeE]KA)”, the “tumor fluorescence compared to unmodified CREKA” value [1] is reported as “significantly more fluorescence” and the “accumulation in areas rich in fibrin(ogen) and fibronectin” value ([1]; confocal microscopy of tumor sections) is reported as “equally active”.
For “CR(CMe)EKA: Cα-methylated CREKA analog (C[αMeR]EKA)”, the “tumor fluorescence compared to unmodified CREKA” value [1] was “significantly more fluorescence”.
